Consider 3 compounds from patent US20100227935A1, “CLASS OF TERPENE-DERIVED COMPOUNDS HAVING AN ANTIBIOTIC ACTIVITY, COMPOSITIONS CONTAINING THE SAME AND USES THEREOF” (Centre National De La Recherche Scientifique, priority 2006, published 2010).

Experiment [1] concerns C. difficile. Particulars: cited from earlier work.
Experiment [2] has as its system C. difficile. Particulars: molecules in current use or in clinical trials (phase III); cited from earlier work.
Another experiment has as its system Staphylococcus aureus H1. In words: MIC / antibiotic susceptibility. Further: key: R: strain resistant to antibiotic concerned; S: strain sensitive to antibiotic concerned; L strain with intermediate resistance to antibiotic concerned. The class given is cell-based.
The test system of the next experiment is Staphylococcus aureus H7. In words: MIC / antibiotic susceptibility. Further: key: R: strain resistant to antibiotic concerned; S: strain sensitive to antibiotic concerned; L strain with intermediate resistance to antibiotic concerned. The class given is cell-based.
The subject of experiment [3] is Staphylococcus aureus H16. The class given is cell-based.
The test system of another experiment is Staphylococcus aureus H4. In words: MIC / antibiotic susceptibility. It is filed as cell-based.
The next experiment deals with Staphylococcus aureus H9. In words: MIC / antibiotic susceptibility. The class given is cell-based.
The next experiment deals with Staphylococcus aureus H3. The experiment in a line: MIC / antibiotic susceptibility. The class given is cell-based.
The subject of experiment [4] is Staphylococcus aureus H18. In words: MIC / antibiotic susceptibility. Further: key: R: strain resistant to antibiotic concerned; S: strain sensitive to antibiotic concerned; L strain with intermediate resistance to antibiotic concerned. It is filed as cell-based.

Each structure is given as a SMILES string. ≈ marks a conversion by molar mass, not a printed value.
Wherever Susceptibility of strain to antibiotic is given: key: R: strain resistant to antibiotic concerned; S: strain sensitive to antibiotic concerned; L strain with intermediate resistance to antibiotic concerned.

In the case of `Cc1ncc([N+](=O)[O-])n1CCO` [Metronidazole], the “Patients for whom the drug is inactive” value with C. difficile [1] (first intention treatment of C. difficile infection) is listed as 25%. Also, the Relapses with C. difficile [1] (treatment of C. difficile infection) is reported as 25 % of cases. The “MIC on C. difficile” value in the experiment with C. difficile [2] was 1 µg/mL (≈ 5.84 µM).

In the case of `CO[C@H]1/C=C/O[C@@]2(C)Oc3c(C)c(O)c4c(O)c(c5c(nc6cc(C)ccn65)c4c3C2=O)NC(=O)/C(C)=C\C=C\[C@H](C)[C@H](O)[C@@H](C)[C@@H](O)[C@@H](C)[C@H](OC(C)=O)[C@@H]1C` [Rifaximin], in the experiment with C. difficile [2], the “MIC on C. difficile” value is 0.08 to 0.2 µg/mL.

As for `CN[C@H](CC(C)C)C(=O)N[C@H]1C(=O)N[C@@H](CC(N)=O)C(=O)N[C@H]2C(=O)N[C@H]3C(=O)N[C@H](C(=O)N[C@H](C(=O)O)c4cc(O)cc(O)c4-c4cc3ccc4O)[C@H](O)c3ccc(c(Cl)c3)Oc3cc2cc(c3O[C@@H]2O[C@H](CO)[C@@H](O)[C@H](O)[C@H]2O[C@H]2C[C@](C)(N)[C@H](O)[C@H](C)O2)Oc2ccc(cc2Cl)[C@H]1O` [Vancomycin], the “Susceptibility of strain to antibiotic” value (in the experiment with Staphylococcus aureus H1; in the experiment on Staphylococcus aureus H7; in experiment [3]; in the experiment on Staphylococcus aureus H4; in the experiment on Staphylococcus aureus H9; in the experiment with Staphylococcus aureus H3) was “S” each time. Moreover, the “Susceptibility of strain to antibiotic” value in experiment [4] is recorded as “R”. In the experiment on C. difficile [2], the “MIC on C. difficile” value was around 1 µg/mL (≈ 0.69 µM).
